The subject of assay [1] is guinea pig ileum. Briefly: Isolated guinea pig gut constriction (Magnus, ileum). The settings on record: for suppression of contraction upon stimulation with acrolein by serotonin receptor antagonists: acrolein 300 μM, pizotifen maleate 10 μM, ramosetron hydrochloride 0.3 μM, vs vehicle; for EC50: Cavia porcellus, read-out: EC50(μM) †; for Action: Magnus (guinea pig ileum). As for the experimental part: Guinea pigs (Hartley strain, male, weighing 300-400 g), under ether anesthesia, were exsanguinated to death by cutting the carotid artery. The ileum was extirpated, about 15-cm portions at both ends were removed, a section 1.5 cm long was cut out from the remaining portion, and incisions were made longitudinally parallelly in the gut to prepare a tabular specimen. This specimen was sandwiched with serrefine at both ends, and suspended with a thread in a Magnus chamber containing 10 ml of a 37° C. Krebs solution (118 mM NaCl, 4.7 mM KCl, 2.5 mM CaCl2, 1.2 mM MgSO4, 1.2 mM KH2PO4, 11 mM D-glucose, 20 mM NaHCO3) aerated with 95% O2-5% CO2 mixed gas. A 1-g load was applied to the specimen, buffers were exchanged at 15-minute intervals, and the specimen was allowed to stand for about 60 minutes to stabilize its tension. Changes in the tension in response to agonist stimulation were measured isometrically, and recorded on a recorder. Acetylcholine, 10^−5 M, was administered to induce contraction of the ileum specimen; after the contraction maximized, the bath was washed three times to purge out the acetylcholine. This operation was repeated at 10-minute intervals, and after the induced contraction stabilized two consecutive times, each test substance was administered. By comparing the contractile forces produced by acetylcholine and the test substance, the effect of the test substance was evaluated. One specimen was investigated only at one concentration of the test substance. […] From the results above, it was shown that the TRPA1 activator induced gut contraction.
The serotonin receptor antagonists used were pizotifen maleate (10 μM), a 5-HT1,2 receptor antagonist, ketanserin tartrate (0.1 μM), a 5-HT2 receptor antagonist, ramosetron hydrochloride (0.3 μM), a 5-HT3 receptor antagonist, and GR113808 (0.3 μM), a 5-HT4 receptor antagonist.
The inhibitory actions of various serotonin receptor antagonists on contraction upon stimulation with acrolein (300 μM) were investigated in the same manner. […] From the results above, it was shown that serotonin was released upon stimulation with acrolein to induce contraction via serotonin receptors such as 5-HT1 receptor and 5-HT3 receptor.

Assay [2] relates to guinea pig ileum. The description is as above. The settings on record: allyl isothiocyanate 300 μM; pizotifen maleate 10 μM, ramosetron hydrochloride 0.3 μM; vs vehicle.
Assay [3] concerns RIN14B cells. Briefly: Channel activity in RIN14B cells using calcium-sensitive fluorescent reagent (FLIPR). Particulars: RIN14B cells, Fluo3-AM. Type of assay: cell-based, rat. As for the experimental part:
RIN14B cells (5×10^4 cells), wherein the expression of TRPA1 was confirmed in Example 10, were incubated in the presence of a calcium-sensitive fluorescent reagent (Fluo3-AM; DOJINDO) at 37° C. for 1 hour to thereby incorporate the calcium-sensitive fluorescent reagent in the cells, after which the cells were washed with physiological saline to remove the calcium-sensitive fluorescent reagent that had not been incorporated in the cells. To the cells obtained, physiological saline supplemented with allyl isothiocyanate, cinnamic aldehyde, or acrolein was added; the fluorescence emitted by the cells was measured over time. The above-described measurements were performed using an automated fluorescence detection apparatus (FLIPR; Molecular Device). […] Ruthenium Red was added concurrently and a measurement was performed to determine whether or not calcium inflow in the cells was be inhibited.

For assay [4], the system named is CHO-K1 cells not expressing the polypeptide shown by SEQ ID NO:2. Briefly: Intracellular calcium by FLIPR in negative control CHO-K1 cells. The format is cell-based. The settings on record: CHO-K1 cells not expressing TRPA1. Background: A change in cytosolic calcium serves as a functional read-out for many receptors and channels.
Assay [5] deals with T1, human TRPA1 (polypeptide of SEQ ID NO:2) (Homo sapiens, UniProt O75762, K186N/R3C/R58T).
T1 construct: expressed in transfected cells; host or cells: CHO-K1 cells, transient transfection of the pcDNA3.1(+) human TRPA1 vector
T1 sequence (O75762 whole entry R3C/R58T/K186N): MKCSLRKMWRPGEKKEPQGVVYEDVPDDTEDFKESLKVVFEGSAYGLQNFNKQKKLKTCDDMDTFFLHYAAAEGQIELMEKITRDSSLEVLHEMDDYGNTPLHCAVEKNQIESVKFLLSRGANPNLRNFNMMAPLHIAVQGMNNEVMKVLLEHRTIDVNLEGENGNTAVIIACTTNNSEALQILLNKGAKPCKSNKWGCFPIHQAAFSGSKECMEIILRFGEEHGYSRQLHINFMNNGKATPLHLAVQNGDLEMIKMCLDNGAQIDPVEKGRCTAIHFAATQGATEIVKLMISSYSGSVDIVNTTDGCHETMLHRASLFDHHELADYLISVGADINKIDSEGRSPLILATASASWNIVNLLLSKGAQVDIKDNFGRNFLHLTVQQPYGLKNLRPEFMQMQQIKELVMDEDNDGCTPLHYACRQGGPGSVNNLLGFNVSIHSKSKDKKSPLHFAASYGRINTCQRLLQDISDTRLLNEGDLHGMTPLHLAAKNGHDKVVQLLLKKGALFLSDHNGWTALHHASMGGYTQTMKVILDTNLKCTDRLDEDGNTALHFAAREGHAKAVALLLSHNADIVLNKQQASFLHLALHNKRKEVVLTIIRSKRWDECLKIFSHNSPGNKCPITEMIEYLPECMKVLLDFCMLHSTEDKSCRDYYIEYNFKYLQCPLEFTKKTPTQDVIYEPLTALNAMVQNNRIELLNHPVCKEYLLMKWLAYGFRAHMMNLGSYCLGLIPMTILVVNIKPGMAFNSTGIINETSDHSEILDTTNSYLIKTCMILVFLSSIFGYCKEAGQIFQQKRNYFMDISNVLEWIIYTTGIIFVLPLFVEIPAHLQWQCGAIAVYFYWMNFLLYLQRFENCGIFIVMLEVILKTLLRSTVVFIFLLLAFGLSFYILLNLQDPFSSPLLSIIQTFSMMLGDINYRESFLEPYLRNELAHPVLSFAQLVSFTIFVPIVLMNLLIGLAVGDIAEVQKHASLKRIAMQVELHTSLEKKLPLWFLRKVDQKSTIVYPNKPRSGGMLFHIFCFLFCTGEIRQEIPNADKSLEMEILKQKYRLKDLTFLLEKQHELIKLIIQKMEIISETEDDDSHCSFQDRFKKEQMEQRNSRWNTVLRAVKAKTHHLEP
Briefly: Intracellular calcium by FLIPR in CHO-K1 cells expressing human TRPA1 (activator screening). The format is cell-based.
Experimental: To detect the TRPA1 channel activity of a polypeptide consisting of the amino acid sequence shown by SEQ ID NO:2, the expression vector obtained in Example 1 above was transfected to animal cells, whereby the aforementioned protein was expressed.
Various test samples were added to CHO-K1 cells forced to is transiently express TRPA1 by the transfection operation of Example 2 above, and the resulting changes in intracellular calcium concentration were measured using FLIPR (Molecular Device).
To measure the changes in intracellular calcium concentration by FLIPR, the following pre-treatment was performed. First, an assay buffer for adding the fluorescent dye Fluo3-AM (DOJIN) to the cells, or for washing the cells just before performing the FLIPR assay, was prepared. To a solution prepared by adding 20 ml of 1M HEPES (pH 7.4) (Invitrogen) to 1000 ml of HBSS (Invitrogen) (hereinafter, HBSS/HEPES solution), 10 ml of a solution prepared by dissolving 710 mg of probenecid (Sigma) in 5 ml of 1N NaOH and then adding 5 ml of the HBSS/HEPES solution, was added and mixed, and this solution was used as the assay buffer. Next, 50 μg of Fluo3-AM was dissolved in 22 μl of DMSO (DOJIN), and an equal volume of 20% pluronic acid (Molecular Probes) was added and mixed, after which this mixture was added to 10.6 ml of the assay buffer supplemented with 105 μl of fetal bovine serum, whereby a fluorescent dye solution was prepared. […] After this pretreatment was performed, changes in intracellular calcium concentration after addition of the various test samples were measured with the FLIPR.
Compounds that activate a polypeptide consisting of the amino acid sequence shown by SEQ ID NO:2 (activators) were screened for. As an index of activation, calcium inflow in the cells was detected using a calcium-sensitive fluorescent reagent; specifically, the method described in Example 3 was used.

Assay [6] relates to RIN14B cells. Briefly: Serotonin secretion from RIN14B cells (immunoassay). Particulars: 20 minutes culture. Type of assay: cell-based, rat. As for the experimental part:
After RIN14B cells in culture in a Petri dish were detached using a PBS containing 1 mM EDTA, they were sown to a 96-well plate and cultured for 2 days. The medium used was RPMI1640 (Invitrogen Japan K.K.) supplemented with 10% fetal bovine serum (ICN), 100 U/ml penicillin, and 100 μg/ml streptomycin. After the cells were once washed with Hanks' Balanced Salt Solutions (HBSS, Invitrogen) supplemented with 0.1% BSA and 10 μM fluoxetine (TOCRIS), each TRPA1 activator, previously diluted/prepared with the above-described HBSS, was added, and the RIN14B cells were cultured at 37° C. in the presence of 5% CO2 for 20 minutes. After the cultivation, the cell supernatant was recovered, and stored under freezing. The serotonin content in the supernatant was measured using a commercially available serotonin immunoassay kit (Beckman).

The subject of the next assay is rat EC cells. Briefly: Serotonin secretion from rat small intestine EC cells. Type of assay: cell-based. The settings on record: 45 minutes culture. As for the experimental part: A Wistar rat (male, 8-week-old) was decapitated and exsanguinated, after which it was dissected and laparotomized with scissors, and the small intestine was extirpated. The inside of the lumen of the extirpated small intestine was washed with physiological saline, and about 20 mL of Buffer A (70 mM NaCl, 5 mM KCl, 20 mM NaHCO3, 0.5 mM NaH2PO4, 50 mM HEPES (pH 7.2), 11 mM glucose, 3 mM EDTA, 0.5% BSA, 0.05 mM dithiothreitol, 1 mg/mL N-acetyl-L-cysteine) was injected, after which both ends were closed, and the small intestine was allowed to stand in 37° C. incubated HBSS for 10 minutes. Thereafter, the Buffer A in the lumen of the small intestine was discarded, about 20 mL of Buffer A was injected again, and the small intestine was allowed to stand in 37° C. incubated HBSS for 10 minutes. Again, the Buffer A in the lumen of the small intestine was discarded, fresh Buffer A was injected, and the small intestine was allowed to stand in 37° C. incubated HBSS for 20 minutes, after which the lumen content was recovered. […]
Serotonin secretion activity in EC cells prepared by the method described in Example 9-(3) was measured by a method modified from the method of Example 14 above. […]
The serotonin content in the supernatant was measured using a commercially available serotonin immunoassay kit (Beckman). […]

Entries after “also recorded” stand apart in the source; their conditions may differ. Counter-ions that a name gives are not always drawn.

One may read the EC50 as the concentration at which the effect is half-maximal.

With `Cn1cc(C(=O)[C@@H]2CCc3nc[nH]c3C2)c2ccccc21` [ramosetron hydrochloride], in the assay on guinea pig ileum [1], the “suppression of contraction upon stimulation with acrolein by serotonin receptor antagonists” value is “about 84%”. Moreover, the “suppression of contraction upon stimulation with allyl isothiocyanate by serotonin receptor antagonists” value in the assay on guinea pig ileum [2] is reported as “about 74%”.
Take `C=CC=O` [acrolein]: in the assay on guinea pig ileum [1], the EC50 was determined as 70.3 µM and the Action result is listed as “Contraction”. In addition, in the assay with guinea pig ileum [1] (tested at 10, 30, 100, 300 μM), the “concentration at which constrictive action was observed” value is no less than 10 µM. The “elevation of fluorescence intensity (calcium inflow) in RIN14B cells” value with RIN14B cells [3] was “an elevation of fluorescence intensity was detected”. The “elevation of fluorescence intensity in negative control cells” value in assay [4] is reported as “none of these compounds produced an elevation of fluorescence intensity”. Besides, the EC50 in assay [5] amounted to 7 µM. Moreover, the “change in intracellular calcium concentration” value in assay [5] (CHO-K1 cells expressing human TRPA1, FLIPR, Fluo3-AM) is reported as “responded specifically (elevation of intracellular calcium concentration)”. In the assay with RIN14B cells [6], the “serotonin secretion from RIN14B cells” value was “serotonin secretion was promoted; also recorded: concentration-dependently promoted the release of serotonin”.
Consider pizotifen maleate, for which the “suppression of contraction upon stimulation with acrolein by serotonin receptor antagonists” value in the assay on guinea pig ileum [1] is reported as “about 74%”. Also, the “suppression of contraction upon stimulation with allyl isothiocyanate by serotonin receptor antagonists” value in the assay on guinea pig ileum [2] is given as “about 44%”.
Regarding `O=C/C=C/c1ccccc1` [cinnamic aldehyde], in the assay with guinea pig ileum [1], the EC50 was 88.3 µM and the Action entry is on record as “Contraction”. Also, the “serotonin secretion from rat EC cells” value in the assay on rat EC cells is “significant serotonin secretion promoting activity was observed; also recorded: promoted the release of serotonin from the EC cells”. For the same molecule, in the assay on RIN14B cells [3], the “elevation of fluorescence intensity (calcium inflow) in RIN14B cells” value is recorded as “an elevation of fluorescence intensity was detected”. For the same molecule, the “elevation of fluorescence intensity in negative control cells” value in assay [4] is recorded as “none of these compounds produced an elevation of fluorescence intensity”. Further, the “serotonin secretion from RIN14B cells” value in the assay with RIN14B cells [6] is “serotonin secretion was promoted; also recorded: concentration-dependently promoted the release of serotonin”.

Source of the values: patent US8034574B2, “Screening method for prokinetic agent” (Astellas Pharma Inc., priority 2006, dated 2011).
